# Test results from ChEMBL document CHEMBL5126592, “Design, synthesis and activity against drug-resistant bacteria evaluation of C-20, C-23 modified 5-O-mycaminosyltylonolide derivatives” (Eur J Med Chem, 2022).
# Activity calls are given as the source filed them. The calls are words filed in the database; no cut-off is given here.
# Columns and labels:
# Type in all cases: functional
# Staphylococcus aureus [1] = assay: Antibacterial activity against Staphylococcus aureus ATCC 29213 incubated for 16 to 20 hrs using 10^7 CFU/ml bacterial inoculum by broth microdilution method; conditions: time 16-20 hrs
# [2] = tested on: Staphylococcus chromogenes; assay: Antibacterial activity against Staphylococcus chromogenes incubated for 16 to 20 hrs by broth microdilution method; conditions: time 16-20 hrs
# Staphylococcus aureus [3] = assay: Antibacterial activity against Staphylococcus aureus ATCC 29213 at pH 8.6 incubated for 16 to 20 hrs in absence of foetal bovine serum by broth microdilution method; conditions: time 16-20 hrs
# Staphylococcus aureus [4] = assay: Antibacterial activity against Staphylococcus aureus ATCC 29213 incubated for 16 to 20 hrs using 10^3 CFU/ml bacterial inoculum by broth microdilution method; conditions: time 16-20 hrs
# Staphylococcus aureus [5] = assay: Antibacterial activity against Staphylococcus aureus ATCC 29213 incubated for 16 to 20 hrs using 10^6 CFU/ml bacterial inoculum by broth microdilution method; conditions: time 16-20 hrs
# Staphylococcus aureus [6] = assay: Antibacterial activity against Staphylococcus aureus incubated for 16 to 20 hrs by broth microdilution method; conditions: time 16-20 hrs
# Staphylococcus aureus [7] = assay: Antibacterial activity against Staphylococcus aureus ATCC 29213 at pH 8.6 incubated for 16 to 20 hrs in presence of 25% foetal bovine serum by broth microdilution method; conditions: time 16-20 hrs
# Escherichia coli [8] = assay: Antibacterial activity against Escherichia coli ATCC 25922 incubated for 16 to 20 hrs in presence of 10% foetal bovine serum by broth microdilution method; conditions: time 16-20 hrs
# Staphylococcus aureus [9] = assay: Antibacterial activity against Staphylococcus aureus ATCC 29213 at pH 8.6 incubated for 16 to 20 hrs in presence of 50% foetal bovine serum by broth microdilution method; conditions: time 16-20 hrs
# Enterococcus faecium = assay: Antibacterial activity against Enterococcus faecium incubated for 16 to 20 hrs by broth microdilution method; conditions: time 16-20 hrs
# Klebsiella pneumoniae = assay: Antibacterial activity against Klebsiella pneumoniae ATCC 13883 incubated for 16 to 20 hrs by broth microdilution method; conditions: time 16-20 hrs
# Escherichia coli [10] = assay: Antibacterial activity against Escherichia coli ATCC 25922 incubated for 16 to 20 hrs using 10^3 CFU/ml bacterial inoculum by broth microdilution method; conditions: time 16-20 hrs
# Staphylococcus aureus [11] = assay: Antibacterial activity against Staphylococcus aureus ATCC 29213 incubated for 16 to 20 hrs using 10^4 CFU/ml bacterial inoculum by broth microdilution method; conditions: time 16-20 hrs
# Escherichia coli [12] = assay: Antibacterial activity against Escherichia coli ATCC 25922 incubated for 16 to 20 hrs in absence of foetal bovine serum by broth microdilution method; conditions: time 16-20 hrs
# Escherichia coli [13] = assay: Antibacterial activity against Escherichia coli ATCC 25922 incubated for 16 to 20 hrs in presence of 25% foetal bovine serum by broth microdilution method; conditions: time 16-20 hrs
# Escherichia coli [14] = assay: Antibacterial activity against Escherichia coli ATCC 25922 incubated for 16 to 20 hrs using 10^5 CFU/ml bacterial inoculum by broth microdilution method; conditions: time 16-20 hrs
# Escherichia coli [15] = assay: Antibacterial activity against Escherichia coli ATCC 25922 incubated for 16 to 20 hrs in presence of 50% foetal bovine serum by broth microdilution method; conditions: time 16-20 hrs
# Pseudomonas aeruginosa = assay: Antibacterial activity against Pseudomonas aeruginosa LTP-3 incubated for 16 to 20 hrs by broth microdilution method; conditions: time 16-20 hrs
# Escherichia coli [16] = assay: Antibacterial activity against Escherichia coli ATCC 25922 incubated for 16 to 20 hrs by broth microdilution method; conditions: time 16-20 hrs
# Cronobacter sakazakii = assay: Antibacterial activity against Cronobacter sakazakii ATCC 29544 incubated for 16 to 20 hrs by broth microdilution method; conditions: time 16-20 hrs
# [17] = tested on: Streptococcus dysgalactiae; assay: Antibacterial activity against Streptococcus dysgalactiae incubated for 16 to 20 hrs by broth microdilution method; conditions: time 16-20 hrs
# Escherichia coli [18] = assay: Antibacterial activity against Escherichia coli ATCC 25922 incubated for 16 to 20 hrs using 10^4 CFU/ml bacterial inoculum by broth microdilution method; conditions: time 16-20 hrs
# Escherichia coli [19] = assay: Antibacterial activity against Escherichia coli ATCC 25922 incubated for 16 to 20 hrs using 10^7 CFU/ml bacterial inoculum by broth microdilution method; conditions: time 16-20 hrs
# Escherichia coli [20] = assay: Antibacterial activity against Escherichia coli incubated for 16 to 20 hrs by broth microdilution method; conditions: time 16-20 hrs
# Staphylococcus aureus [21] = assay: Antibacterial activity against Staphylococcus aureus ATCC 29213 at pH 8.6 incubated for 16 to 20 hrs in presence of 5% foetal bovine serum by broth microdilution method; conditions: time 16-20 hrs
# Escherichia coli [22] = assay: Antibacterial activity against Escherichia coli ATCC 25922 incubated for 16 to 20 hrs in presence of 5% foetal bovine serum by broth microdilution method; conditions: time 16-20 hrs
# Staphylococcus aureus [23] = assay: Antibacterial activity against Staphylococcus aureus ATCC 29213 at pH 8.6 incubated for 16 to 20 hrs in presence of 10% foetal bovine serum by broth microdilution method; conditions: time 16-20 hrs
# Staphylococcus aureus [24] = assay: Antibacterial activity against Staphylococcus aureus ATCC 29213 incubated for 16 to 20 hrs using 10^5 CFU/ml bacterial inoculum by broth microdilution method; conditions: time 16-20 hrs
# Escherichia coli [25] = assay: Antibacterial activity against Escherichia coli ATCC 25922 incubated for 16 to 20 hrs using 10^6 CFU/ml bacterial inoculum by broth microdilution method; conditions: time 16-20 hrs
# Staphylococcus aureus [26] = assay: Antibacterial activity against Staphylococcus aureus ATCC 25923 incubated for 16 to 20 hrs by broth microdilution method; conditions: time 16-20 hrs
# Escherichia coli [27] = assay: Induction of drug resistance in Escherichia coli ATCC 25922 assessed as increase in MIC measured after 30 passages by broth microdilution method
Structure (SMILES),MIC [2],MIC (Staphylococcus aureus [6]),MIC (Escherichia coli [8]),MIC (Enterococcus faecium),MIC (Klebsiella pneumoniae),MIC (Escherichia coli [10]),MIC (Escherichia coli [12]),MIC (Escherichia coli [13]),MIC (Escherichia coli [14]),MIC (Escherichia coli [15]),MIC (Pseudomonas aeruginosa),MIC (Escherichia coli [16]),MIC (Cronobacter sakazakii),MIC [17],MIC (Escherichia coli [18]),MIC (Escherichia coli [19]),MIC (Escherichia coli [20]),MIC (Escherichia coli [22]),MIC (Escherichia coli [25]),MIC (Staphylococcus aureus [26]),further results
CC[C@H]1OC(=O)C[C@@H](O)[C@H](C)[C@@H](O[C@@H]2O[C@H](C)[C@@H](O[C@H]3C[C@@](C)(O)[C@@H](O)[C@H](C)O3)[C@H](N(C)C)[C@H]2O)[C@@H](CC=O)C[C@@H](C)C(=O)/C=C/C(C)=C/[C@@H]1CO[C@@H]1O[C@H](C)[C@@H](O)[C@@H](OC)[C@H]1OC [TYLOSIN],0.5 µg/mL,0.25 µg/mL,> 32 µg/mL,1 µg/mL,> 32 µg/mL,> 32 µg/mL,> 32 µg/mL,> 32 µg/mL,> 32 µg/mL,> 32 µg/mL,32 µg/mL,> 32 µg/mL,> 32 µg/mL,1 µg/mL,> 32 µg/mL,> 32 µg/mL,> 32 µg/mL,> 32 µg/mL,> 32 µg/mL,0.5 µg/mL,MIC (Staphylococcus aureus [1]): 1 µg/mL; MIC (Staphylococcus aureus [3]): 2 µg/mL; MIC (Staphylococcus aureus [4]): 0.5 µg/mL; MIC (Staphylococcus aureus [5]): 1 µg/mL; MIC (Staphylococcus aureus [7]): > 32 µg/mL; MIC (Staphylococcus aureus [9]): > 32 µg/mL; MIC (Staphylococcus aureus [11]): 0.5 µg/mL; MIC (Staphylococcus aureus [21]): > 32 µg/mL; MIC (Staphylococcus aureus [23]): > 32 µg/mL; MIC (Staphylococcus aureus [24]): 0.5 µg/mL
CC[C@H]1OC(=O)C[C@@H](O)[C@H](C)[C@@H](O[C@@H]2O[C@H](C)[C@@H](O)[C@H](N(C)C)[C@H]2O)[C@@H](CCN(C)Cc2cn(-c3cnc4ccccc4c3)nn2)C[C@@H](C)C(=O)/C=C/C(C)=C/[C@@H]1CN(CC)CC,1 µg/mL,0.5 µg/mL,,2 µg/mL,1 µg/mL,,,,,,2 µg/mL,2 µg/mL,4 µg/mL,0.5 µg/mL,,,4 µg/mL,,,0.125 µg/mL,
CS(=O)(=O)c1ccc([C@@H](O)[C@@H](CF)NC(=O)C(Cl)Cl)cc1,,,,,,,,,,,,,,,,,,,,,Activity (Escherichia coli [27]): Active
C[C@@H](O)[C@H]1C(=O)N2C(C(=O)O)=C(S[C@@H]3CN[C@H](C(=O)N(C)C)C3)[C@H](C)[C@H]12 [MEROPENEM],0.0625 µg/mL,< 0.0625 µg/mL,< 0.0625 µg/mL,8 µg/mL,< 0.0625 µg/mL,< 0.0625 µg/mL,< 0.0625 µg/mL,< 0.0625 µg/mL,< 0.0625 µg/mL,< 0.0625 µg/mL,< 0.0625 µg/mL,0.125 µg/mL,0.0625 µg/mL,8 µg/mL,< 0.0625 µg/mL,< 0.0625 µg/mL,< 0.0625 µg/mL,< 0.0625 µg/mL,< 0.0625 µg/mL,0.0625 µg/mL,
CC[C@H]1OC(=O)C[C@@H](O)[C@H](C)[C@@H](O[C@@H]2O[C@H](C)[C@@H](O)[C@H](N(C)C)[C@H]2O)[C@@H](CCN(C)Cc2cn(-c3cnc4ccccc4c3)nn2)C[C@@H](C)C(=O)/C=C/C(C)=C/[C@@H]1CO,0.125 µg/mL,0.25 µg/mL,,2 µg/mL,2 µg/mL,,,,,,4 µg/mL,4 µg/mL,8 µg/mL,0.5 µg/mL,,,4 µg/mL,,,1 µg/mL,
CC[C@H]1OC(=O)C[C@@H](O)[C@H](C)[C@@H](O[C@@H]2O[C@H](C)[C@@H](O)[C@H](N(C)C)[C@H]2O)[C@@H](CCN(C)Cc2cn(-c3cnc4ccccc4c3)nn2)C[C@@H](C)C(=O)/C=C/C(C)=C/[C@@H]1CN1CCCCC1,0.5 µg/mL,0.25 µg/mL,,1 µg/mL,2 µg/mL,,,,,,1 µg/mL,2 µg/mL,8 µg/mL,0.5 µg/mL,,,2 µg/mL,,,0.5 µg/mL,
